Laboratory results from BindingDB's records for doi:10.3109/14756366.2012.681651 (East China University of Science and Technology, 2013).
pIC50: −log10 of the molar value.

target: Ribosomal protein S6 kinase alpha-3 (Homo sapiens, UniProt P51812); assay: RSK2 Inhibition Assay; conditions: pH 7.4; 25 °C
Method: The inhibition assays against RSK2 in vitro were determined by ADP Quest® (DiscoveRx) in 96-well flat-bottom plates according to the manufacturer's instructions [Lu et al., J. Med. Chem., 54:3564-3574]. The kinase (20 ng millipore) in 40 μL assay buffer (15 mM HEPES, pH 7.4, 20 mM NaCl, 1 mM EGTA, 0.02% Tween 20, 10 mM MgCl2, and 0.1 mg/mL BGG) containing 25 μM S6 peptide (AKRRRLSSLRA, Anaspec) was incubated for 20 min at room temperature with indicated concentrations of the compounds to be tested. Reactions were initiated by adding 10 μL of ATP to a final ATP concentration of 10 μM and terminated after 60 min at room temperature by adding 20 μL ADP Reagent A and 40 μL ADP Reagent B. Ro31-8220 was used as a positive control. Compounds dilutions were prepared from stock in DMSO and diluted with assay buffer for inhibition assay. The fluorescence signal detecting the amount of ADP produced as a result of enzyme activity was recorded on the Synergy™ 2 Multi-Mode Microplate Reader (BioTek) at an excitation wavelength of 530 nm and an emission wavelength of 590 nm at 30 min after the addition of the ADP Reagent B.

Sequence of Ribosomal protein S6 kinase alpha-3 (P51812 whole entry): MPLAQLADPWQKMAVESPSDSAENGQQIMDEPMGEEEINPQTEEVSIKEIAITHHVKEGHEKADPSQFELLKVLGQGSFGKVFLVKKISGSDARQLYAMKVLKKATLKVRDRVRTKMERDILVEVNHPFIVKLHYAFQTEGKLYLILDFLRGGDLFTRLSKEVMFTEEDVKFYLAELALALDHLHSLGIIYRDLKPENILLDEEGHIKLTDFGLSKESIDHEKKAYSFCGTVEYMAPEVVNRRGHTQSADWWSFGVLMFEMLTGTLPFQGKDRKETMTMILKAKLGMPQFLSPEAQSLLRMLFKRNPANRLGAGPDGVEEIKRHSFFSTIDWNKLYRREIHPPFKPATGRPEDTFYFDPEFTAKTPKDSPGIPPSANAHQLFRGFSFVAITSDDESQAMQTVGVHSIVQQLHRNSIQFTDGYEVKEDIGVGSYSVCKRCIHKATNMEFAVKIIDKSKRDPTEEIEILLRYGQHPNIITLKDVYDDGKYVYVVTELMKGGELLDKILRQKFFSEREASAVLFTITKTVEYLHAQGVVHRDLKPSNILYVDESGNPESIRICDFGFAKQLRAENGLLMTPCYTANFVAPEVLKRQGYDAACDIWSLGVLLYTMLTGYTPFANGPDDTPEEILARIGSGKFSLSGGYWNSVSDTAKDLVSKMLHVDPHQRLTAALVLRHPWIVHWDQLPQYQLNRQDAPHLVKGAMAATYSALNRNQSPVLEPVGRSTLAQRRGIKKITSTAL

Row | Structure (SMILES) | pIC50
1 | O=C1NC(=S)NC(=O)C1=NNc1ccc(O)cc1 [5-(2-(4-Hydroxyphenyl)hydrazono)-dihydro-2-thioxopyrimidine-4,6(1H,5H)-dione (14)] | 5.66
2 | O=C1NC(=O)C(=NNc2ccc(O)cc2)C(=O)N1 [5-(2-(4-Hydroxyphenyl)hydrazono)pyrimidine-2,4,6(1H,3H,5H)-trione (9)] | 5.71
3 | O=C1NC(=O)C(=NNc2ccc(N3CCOCC3)cc2)C(=O)N1 [5-(2-(4-Morpholinophenyl)hydrazono)pyrimidine-2,4,6(1H,3H,5H)-trione (13)] | 5.29
4 | O=C1NC(=S)NC(=O)C1=NNc1ccc(N2CCOCC2)cc1 [5-(2-(4-Morpholinophenyl)hydrazono-dihydro-2-thioxopyrimidine-4,6(1H,5H)-dione (15)] | 5.03
